Laboratory results taken from PMC7037232, “Effect of Cholesterol on the Organic Cation Transporter OCTN1 (SLC22A4)” (International Journal of Molecular Sciences, 2020).
“And” between values parts separate entries of the source, which are not always exact repeats. Equal entries are not always repeated. Each block holds one molecule with its values, some of them ahead of it.

Assays:
recombinant OCTN1 [1] = target: T1, recombinant OCTN1 (Homo sapiens, UniProt Q9H015); assay: [3H]-acetylcholine uptake in proteoliposomes reconstituted with recombinant OCTN1 over-expressed in E. coli; assay type: biochemical; conditions: for IC50: [3H]-acetylcholine uptake 0.1 mM, 20 min
T1 construct: made in house; host or cells: E. coli
T1 sequence (Q9H015 1-551): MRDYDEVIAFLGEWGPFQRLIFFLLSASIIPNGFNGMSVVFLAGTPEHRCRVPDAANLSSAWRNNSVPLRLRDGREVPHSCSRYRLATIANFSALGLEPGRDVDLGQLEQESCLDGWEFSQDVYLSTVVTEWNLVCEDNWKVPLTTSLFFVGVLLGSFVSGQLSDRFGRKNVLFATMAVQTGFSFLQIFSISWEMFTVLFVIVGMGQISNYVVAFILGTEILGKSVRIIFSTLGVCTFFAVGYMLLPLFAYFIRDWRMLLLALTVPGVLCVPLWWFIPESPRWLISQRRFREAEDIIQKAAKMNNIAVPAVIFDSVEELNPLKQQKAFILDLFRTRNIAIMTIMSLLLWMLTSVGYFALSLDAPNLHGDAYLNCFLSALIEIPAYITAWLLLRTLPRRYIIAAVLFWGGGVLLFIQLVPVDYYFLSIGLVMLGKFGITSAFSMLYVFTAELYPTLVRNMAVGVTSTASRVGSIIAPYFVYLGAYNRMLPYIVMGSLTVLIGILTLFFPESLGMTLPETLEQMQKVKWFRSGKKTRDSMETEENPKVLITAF
Experimental: (§1) OCTN1 over-expressed in E. coli and purified as previously described was used for reconstitution in liposomes. The composition of the initial mixture used for reconstitution (except when differently indicated) was 200 µL of the purified protein (5 µg protein in 0.05% DDM), CHS at the indicated concentrations solubilized in 240 µL of 20 mM Tris/HCl (pH 7.5) and 5% Triton X-100 or buffer and Triton X-100 alone in the case of samples without CHS, 120 µL of 10% egg yolk phospholipids in the form of sonicated liposomes prepared as previously described, 16 mM ATP and (where indicated) in a final volume of 700 μL. The purified OCTN1 inserted in liposomal membrane by removing the detergent from mixed micelles containing detergent, protein, and phospholipids with Amberlite XAD-4 in a batch-wise procedure. Where indicated, proteoliposome internal volume was measured using a colorimetric phosphate method. In detail, 30 mM dipotassium phosphate (K2HPO4) was added to the reconstitution mixture. After elution from Sephadex G75 pre-equilibrated with 5 mM Tris/HCl (pH 7.5), 100 µL of sample were used for the colorimetric reaction. A solution containing 150 µL of 10% SDS was used to solubilize liposomal membranes. Then, 700 µL of a solution prepared with 10 mM hexammonium heptamolybdate 4-hydrate, 0.3 mM H2SO4 and 0.1 mM FeSO4 was added starting an incubation of 30 min in the dark. At the end, absorbance from each sample was measured at 578 nm. Internal volume in µL was derived from nmol of phosphate incorporated in liposomes.
(§2) Proteoliposomes (550 µL) were passed through a Sephadex G-75 column (0.7 cm diameter x 15 cm height) pre-equilibrated with 5 mM Tris/HCl (pH 7.5). The first 550 µL turbid eluate was collected and divided in aliquots (samples) of 100 µL each. Transport was started by adding 0.1 mM [^14C]-TEA or [^3H]-acetylcholine to the proteoliposome samples and stopped by adding 0.5 mM HgCl2 at the desired time interval. In control samples, the inhibitor was added at time zero according to the inhibitor stop method. Finally, each sample of proteoliposomes (100 µL) was passed through a Sephadex G-75 column (0.6 cm diameter × 8 cm height) in order to separate the external from the internal radioactivity. Liposomes were eluted with 1 mL of 50 mM NaCl and collected in 4ml of scintillation mixture, vortexed, and counted. The experimental values were corrected by subtracting the respective controls. The uptake time course data were interpolated using a first order rate equation from which rate constants were derived as the product of k (the first order rate constant) and the transport at the equilibrium. Data from dose-response experiments were fitted into an IC50 equation. For kinetic experiments the initial rate of transport expressed as nmol ⋅ min^−1 ⋅ mg protein^−1, was measured by stopping the reaction after 10 min, i.e., within the initial linear range of [^14C]-TEA or [^3H]-acetylcholine uptake into the proteoliposomes. Kinetic constants were estimated from interpolation of the experimental data into a Lineweaver–Burk equation. The Grafit (version 5.0.3) software was used for calculations.

recombinant OCTN1 [2] = target: T1, recombinant OCTN1; assay: [14C]-TEA uptake in proteoliposomes reconstituted with recombinant OCTN1 over-expressed in E. coli; assay type: biochemical; conditions: for IC50: [14C]-TEA uptake 0.1 mM, 20 min
Experimental: as §1
(§3) Proteoliposomes reconstituted with the recombinant OCTN1 and added or not with CHS were incubated with MβCD as above described and then, MβCD was removed by chromatography on Sephadex G-75 column as described in Section 4.7.
as §2

recombinant OCTN1 [3] = target: T1, recombinant OCTN1; assay: Immunodetection of OCTN1 incorporated in proteoliposomes (anti-His antibody)
[4] = Enzymatic quantitation of cholesterol/CHS in proteoliposome lipids; conditions: proteoliposomes with initial 8.3% CHS, 10 mM MβCD
Experimental: as §3
Quantitation was performed using the Cholesterol Quantitation Kit MAK043 by Merck Life Science s.r.l., 20149 Milan, Italy,). Assay was performed in the presence of cholesterol esterase with absorbance measured on a microplate reader at 570 nm.

native human OCTN1 = target: T2, native human OCTN1 (Homo sapiens, UniProt Q9H015); assay: [14C]-TEA uptake in proteoliposomes reconstituted with native OCTN1 extracted from HeLa cells; assay type: biochemical; conditions: 0.1 mM [14C]-TEA
T2 construct: the native human OCTN1, the protein extracted from HeLa cells was exploited; endogenous in cells; host or cells: HeLa cells (Triton X-100 extract reconstituted in proteoliposomes)
T2 sequence (Q9H015 1-551): T1 sequence (Q9H015 1-551)
Experimental: HeLa cells pellet was treated with 150 µL TX-100 10%. After vortexing cells have been incubated 30 min on ice and then centrifuged 10 min 12.000× g at 4 °C. The cell membrane extract (supernatant) was used for the reconstitution. 30 µL supernatant were included to the reconstitution mixture containing 120 µL 10% egg yolk phospholipids in the form of sonicated liposomes prepared as previously described, 80 µL 10% Triton X-100 solution, 16 mM ATP, 7 µL of 500 mM Tris/HCl (pH 7.5) in a final volume of 700 μL.
Each HeLa cell sample or HeLa cell extract was incubated with 10 mM MβCD for 90 min at 37 °C under stirring. Then, the respective extracts were reconstituted in proteoliposomes.
Proteoliposomes (550 µL) were passed through a Sephadex G-75 column (0.7 cm diameter x 15 cm height) pre-equilibrated with 5 mM Tris/HCl (pH 7.5). […] Finally, each sample of proteoliposomes (100 µL) was passed through a Sephadex G-75 column (0.6 cm diameter × 8 cm height) in order to separate the external from the internal radioactivity. Liposomes were eluted with 1 mL of 50 mM NaCl and collected in 4ml of scintillation mixture, vortexed, and counted. […] For kinetic experiments the initial rate of transport expressed as nmol ⋅ min^−1 ⋅ mg protein^−1, was measured by stopping the reaction after 10 min, i.e., within the initial linear range of [^14C]-TEA or [^3H]-acetylcholine uptake into the proteoliposomes. […]

[5] = substrate: CC(=O)OCC[N+](C)(C)C; assay: [3H]-acetylcholine uptake in proteoliposomes reconstituted with recombinant OCTN1 over-expressed in E. coli; assay type: biochemical, human; conditions: other: in the absence of CHS; pH 7.5
Experimental: OCTN1 over-expressed in E. coli and purified as previously described was used for reconstitution in liposomes. The composition of the initial mixture used for reconstitution (except when differently indicated) was 200 µL of the purified protein (5 µg protein in 0.05% DDM), CHS at the indicated concentrations solubilized in 240 µL of 20 mM Tris/HCl (pH 7.5) and 5% Triton X-100 or buffer and Triton X-100 alone in the case of samples without CHS, 120 µL of 10% egg yolk phospholipids in the form of sonicated liposomes prepared as previously described, 16 mM ATP and (where indicated) in a final volume of 700 μL. […] Where indicated, proteoliposome internal volume was measured using a colorimetric phosphate method. […] At the end, absorbance from each sample was measured at 578 nm. […]
Proteoliposomes (550 µL) were passed through a Sephadex G-75 column (0.7 cm diameter x 15 cm height) pre-equilibrated with 5 mM Tris/HCl (pH 7.5). […] Finally, each sample of proteoliposomes (100 µL) was passed through a Sephadex G-75 column (0.6 cm diameter × 8 cm height) in order to separate the external from the internal radioactivity. Liposomes were eluted with 1 mL of 50 mM NaCl and collected in 4ml of scintillation mixture, vortexed, and counted. […]

- effect of intraliposomal ATP on transport (recombinant OCTN1 [1]; acetylcholine uptake, 8.3% CHS): stimulated the transport
- effect of intraliposomal ATP on transport (recombinant OCTN1 [2]; TEA uptake, 8.3% CHS): stimulated the transport
Molecule: Nc1ncnc2c1ncn2[C@@H]1O[C@H](COP(=O)(O)OP(=O)(O)OP(=O)(O)O)[C@@H](O)[C@H]1O [ATP]

Molecule: CC(C)CCC[C@@H](C)[C@H]1CC[C@H]2[C@@H]3CC=C4C[C@@H](OC(=O)CCC(=O)O)CC[C@]4(C)[C@H]3CC[C@]12C [CHS, Cholesteryl HemiSuccinate]
- transport of acetylcholine relative to control (without added cholesterol) (recombinant OCTN1 [1]; 8.3% CHS (83 µg CHS/mg total lipids), 0.1 mM [3H]-acetylcholine): about double the control
- CHS amount giving optimal transport activity (recombinant OCTN1 [1]; [3H]-acetylcholine uptake): 83 µg CHS/ mg total lipids
- relative concentration of immuno-stained OCTN1, normalized to 0% CHS (100%) (recombinant OCTN1 [3]; 2.1% CHS): 109 ± 14%
- relative concentration of immuno-stained OCTN1, normalized to 0% CHS (100%) (recombinant OCTN1 [3]; 4.2% CHS): 104 ± 5.8%
- relative concentration of immuno-stained OCTN1, normalized to 0% CHS (100%) (recombinant OCTN1 [3]; 8.3% CHS): 106 ± 9.1%
- transport of TEA relative to control (without added cholesterol) (recombinant OCTN1 [2]; 8.3% CHS (83 µg CHS/mg total lipids), 0.1 mM [14C]-TEA): about double the control
- CHS amount giving optimal transport activity (recombinant OCTN1 [2]; [14C]-tetraethylamonium uptake): 83 µg CHS/ mg total lipids

Molecule: [Cl][Hg][Cl] [HgCl2]
- IC50 (recombinant OCTN1 [2]; in the absence of CHS): 270 ± 50 µM
- IC50 (recombinant OCTN1 [2]; in the presence of 8.3% CHS): 200 ± 30 µM

- IC50 (recombinant OCTN1 [1]; in the presence of 8.3% CHS): 2200 ± 200 µM
- IC50 (recombinant OCTN1 [2]; in the presence of 8.3% CHS): 1700 ± 500 µM
Molecule: [Na+] [Na^+]

Molecule: CC[N+](CC)(CC)CC [TEA, Tetraethylammonium]
- Km (recombinant OCTN1 [2]): 900 µM and 800 µM
- Vmax of transport (recombinant OCTN1 [2]): 36.1 ± 8.6 nmol ⋅ min^−1 ⋅ mg protein^−1 and 66.6 ± 16.4 nmol ⋅ min^−1 ⋅ mg protein^−1

- IC50 (recombinant OCTN1 [2]; in the absence of CHS): 1600 ± 300 µM
- IC50 (recombinant OCTN1 [2]; in the presence of 8.3% CHS): 1900 ± 700 µM
Molecule: CC[N+](CC)(CC)Cc1ccccc1 [TEBA, Benzyltriethylammonium]

Molecule: C[N+]1(C)CCOC(O)(c2ccc(-c3ccc(C4(O)C[N+](C)(C)CCO4)cc3)cc2)C1 (stereo not shown) [hemicholinium]
- IC50 (recombinant OCTN1 [1]; in the absence of CHS): 530 ± 46 µM
- IC50 (recombinant OCTN1 [1]; in the presence of 8.3% CHS): 300 ± 52 µM

- decrease of the native OCTN1 activity with respect to the control (native human OCTN1; HeLa cell extract incubated with 10 mM MβCD prior to reconstitution): 35%
- decrease of the native OCTN1 activity with respect to the control (native human OCTN1; HeLa cells incubated with 10 mM MβCD prior to solubilization): 23%
- decrease in transport activity (recombinant OCTN1 [2]; proteoliposomes with 8.3% CHS incubated with 10 mM MβCD, 0.1 mM [14C]-TEA): 31%
Molecule: Methyl-beta-CycloDextrin [MβCD]
- reduction of the initial CHS concentration [4]: 40%

B1: human recombinant OCTN1 (Homo sapiens) (protein)
chain: T1 sequence (Q9H015 1-551)
notes: made in house; host or cells: E. coli
- Km [5]: 1100 ± 370 µM
- Vmax [5]: 49.3 ± 12.4 nmol ⋅ min^−1 ⋅ mg protein^−1
